Measured values: ChEMBL document CHEMBL1137823, “Building predictive models for protein tyrosine phosphatase 1B inhibitors based on discriminating structural features by reassembling medicinal chemistry building blocks” (J Med Chem, 2004)
One block for each compound: values may come before it.

Biological target: T1, Tyrosine-protein phosphatase non-receptor type 1 (Homo sapiens, UniProt P18031)
T1 sequence (P18031 whole entry): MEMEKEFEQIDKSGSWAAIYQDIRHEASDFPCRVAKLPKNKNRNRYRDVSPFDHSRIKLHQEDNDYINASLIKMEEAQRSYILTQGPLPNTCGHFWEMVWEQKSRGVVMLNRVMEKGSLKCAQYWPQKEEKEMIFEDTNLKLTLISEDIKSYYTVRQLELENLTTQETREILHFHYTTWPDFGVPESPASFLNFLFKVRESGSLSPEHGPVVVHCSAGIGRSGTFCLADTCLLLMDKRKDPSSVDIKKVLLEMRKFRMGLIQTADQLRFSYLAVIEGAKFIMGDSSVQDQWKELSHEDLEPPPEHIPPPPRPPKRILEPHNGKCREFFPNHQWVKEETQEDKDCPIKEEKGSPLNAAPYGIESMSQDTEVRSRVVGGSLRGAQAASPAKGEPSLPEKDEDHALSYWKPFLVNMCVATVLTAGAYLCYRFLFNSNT
Test: Concentration required for 50% inhibition of tyrosine phosphatase 1B

IC50: 52.5 nM
Compound: CCCC[C@@H](Oc1c(Br)cc(-c2ccc(-c3c(Cc4ccccc4)oc4ccccc34)cc2)cc1Br)C(=O)O

IC50: 437 nM
Compound: O=C(O)[C@@H](Cc1ccccc1)Oc1ccc(-c2ccc(-c3nc4ccccc4n3Cc3ccccc3)cc2)cc1

IC50: 214 nM
Compound: O=C(O)[C@@H](Cc1ccccc1)Oc1ccc(-c2ccc(-c3nc4cccnc4n3Cc3ccccc3)cc2)cc1

IC50: 603 nM
Compound: O=C(O)[C@H](Cc1ccccc1)Oc1ccc(-c2ccc(-c3c(Cc4ccc(F)cc4)oc4ccccc34)cc2)cc1

IC50: 589 nM
Compound: COC(=O)[C@H](Cc1ccccc1)Oc1ccc(-c2ccc(-c3c(Cc4ccccc4)oc4ccccc34)cc2)cc1

IC50: 38.9 nM
Compound: Cc1cc(-c2ccc(-c3c(Cc4ccccc4)oc4ccccc34)cc2)cc(C)c1OS(=O)(=O)c1ccc(C(=O)O)c(O)c1

IC50: 288 nM
Compound: O=C(O)C(Cc1ccccc1)Oc1ccc(-c2ccc(-c3coc4ccccc34)cc2)cc1 (stereo unspecified)

IC50: 275 nM
Compound: Oc1ccc(-c2ccc(-c3c(Cc4ccccc4)oc4ccccc34)cc2)cc1Br

IC50: 407 nM
Compound: O=C(O)C(Cc1ccccc1)Oc1ccc(-c2ccc(-c3c(Br)oc4ccccc34)cc2)cc1 (stereo unspecified)

IC50: 479 nM
Compound: Oc1c(Br)cc(-c2ccc(-c3c(Cc4ccccc4)oc4ccccc34)cc2)cc1Br

IC50: 52.5 nM
Compound: O=C(O)[C@H](Cc1ccccc1)Oc1ccc(-c2ccc(-c3c(Cc4ccccc4)sc4ccccc34)cc2)cc1-c1ccc(Cl)cc1

IC50: 832 nM
Compound: CCCc1cc(-c2ccc(-c3c(Cc4ccccc4)oc4ccccc34)cc2)ccc1O[C@@H](Cc1ccccc1)C(=O)O

IC50: 38 nM
Compound: O=C(O)[C@@H](Cc1ccccc1)Oc1c(Br)cc(-c2ccc(-c3c(Cc4ccccc4)oc4ccccc34)cc2)cc1Br

IC50: 39.8 nM
Compound: O=C(O)c1ccc(S(=O)(=O)Oc2ccc(-c3ccc(-c4c(Cc5ccccc5)oc5ccccc45)cc3)cc2[N+](=O)[O-])cc1O

More lines, now with the values behind:

Compound: CCCCc1oc2ccccc2c1-c1ccc(-c2ccc(OC)cc2)cc1
IC50: 166 nM

Compound: Cc1oc(-c2ccc(C(F)(F)F)cc2)nc1-c1ccc2c(Br)c(OC(Cc3ccccc3)C(=O)O)ccc2c1 (stereo unspecified)
IC50: 191 nM

Compound: CCc1oc2ccccc2c1-c1ccc(-c2ccc(O)cc2)cc1
IC50: 31.6 nM

Compound: CCCCc1oc2ccccc2c1C(=O)c1ccc2cc(O)ccc2c1
IC50: 3.16 nM

Compound: CCCCc1oc2ccccc2c1C(O)c1ccc2cc(O)ccc2c1 (stereo unspecified)
IC50: 912 nM

Compound: Oc1ccc(-c2ccc(-c3coc4ccccc34)cc2)cc1
IC50: 20 nM

Compound: Cc1oc(-c2ccc(C(F)(F)F)cc2)nc1-c1cccc(-c2ccc(OCC(=O)O)cc2)c1
IC50: 63.1 nM

Compound: Cc1oc(-c2ccc(C(F)(F)F)cc2)nc1-c1ccc(-c2ccc(O)cc2)cc1
IC50: 12.6 nM

Compound: CCCCc1oc2ccccc2c1C(=O)c1ccc(-c2ccc(O)cc2)cc1
IC50: 3.98 nM

Compound: Cc1oc(-c2ccc(C(F)(F)F)cc2)nc1-c1cccc(-c2ccc(O)cc2)c1
IC50: 10 nM

Compound: CCCCc1oc2ccccc2c1Cc1ccc2ccc(O)cc2c1
IC50: 776 nM

Compound: CCCCc1oc2ccccc2c1C(O)c1ccc2ccc(OCn3cnnn3)c(Br)c2c1 (stereo unspecified)
IC50: 912 nM
